In PMC6197257 (Scientific Reports, 2018):

Legend:
rat 11β-HSD2 = biological target: T1, rat 11β-HSD2 (Rattus norvegicus, UniProt P50233); assay: in vitro 11β-HSD2 activity using rat kidney microsomes; format: biochemical
T1 construct: kidney microsome fractions were obtained from male Wistar rats (7-week-old); from tissue; host or cells: rat kidney microsome fraction (male Wistar rats)
T1 sequence (P50233 1-400): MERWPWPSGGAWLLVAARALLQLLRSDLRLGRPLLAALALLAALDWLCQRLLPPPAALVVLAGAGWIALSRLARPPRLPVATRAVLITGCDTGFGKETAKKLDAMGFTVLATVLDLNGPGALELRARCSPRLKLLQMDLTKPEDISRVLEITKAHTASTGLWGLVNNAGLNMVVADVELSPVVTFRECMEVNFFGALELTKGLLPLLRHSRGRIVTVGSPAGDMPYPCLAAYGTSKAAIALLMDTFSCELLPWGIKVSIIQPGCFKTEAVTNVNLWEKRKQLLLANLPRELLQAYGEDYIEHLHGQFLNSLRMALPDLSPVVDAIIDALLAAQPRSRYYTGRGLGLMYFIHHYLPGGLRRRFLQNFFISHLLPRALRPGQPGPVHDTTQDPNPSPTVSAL
Description: Assays were conducted as described by Diederich et al.[23] with slight modifications as described in our previous study. Briefly, kidney microsome fractions were obtained from male Wistar rats (7-week-old). The microsome fraction (1.0 mg protein) was then incubated at 37 °C for 30 min in a reaction mixture containing 50 nM [1,2,6,7-^3H] cortisol, 1 mM NAD^+, and samples in […] 0.1 M phosphate buffer (pH 6.0). The reaction was terminated by adding 250 µl EtOH containing 1.25 mg cortisol and 1.25 mg cortisone. A 10 µl aliquot of the solution was spotted onto a silica gel 60 F254 plate and was developed with chloroform:MeOH (9:1). Spots corresponding to cortisone (Rf value, 0.43) were detected under UV light, scraped into a scintillation vial containing Clear-sol®, and the radioactivity was measured using a liquid scintillation counter (Hitachi Aloka Medical, Tokyo, Japan). The IC50 was calculated from the least square regression line made from 3 points that crossed 50% of the control logarithmic concentration values.

OAT3 = biological target: T2, OAT3 (Homo sapiens, UniProt Q8TCC7); assay: uptake by MDCK II cells stably expressing OAT3; format: in vitro ADME; details: pooled plasma of male EHBRs (79 µM compound 1), pH 5.5, 37 °C, 15 min
T2 construct: expressed in transfected cells
T2 sequence (Q8TCC7 1-542): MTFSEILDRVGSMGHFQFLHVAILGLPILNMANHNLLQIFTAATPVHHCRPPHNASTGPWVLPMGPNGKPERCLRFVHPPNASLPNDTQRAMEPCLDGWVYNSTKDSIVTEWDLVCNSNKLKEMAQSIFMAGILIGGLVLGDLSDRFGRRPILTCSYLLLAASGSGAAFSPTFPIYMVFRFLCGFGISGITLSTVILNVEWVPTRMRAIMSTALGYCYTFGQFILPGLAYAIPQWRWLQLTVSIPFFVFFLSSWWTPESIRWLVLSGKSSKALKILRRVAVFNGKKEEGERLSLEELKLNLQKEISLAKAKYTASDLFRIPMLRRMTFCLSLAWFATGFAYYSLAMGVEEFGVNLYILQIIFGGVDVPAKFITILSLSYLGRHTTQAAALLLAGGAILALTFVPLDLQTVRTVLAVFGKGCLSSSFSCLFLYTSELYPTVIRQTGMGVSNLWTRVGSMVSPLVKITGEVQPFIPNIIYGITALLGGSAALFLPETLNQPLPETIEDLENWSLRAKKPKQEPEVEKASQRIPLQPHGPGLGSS
Description: MDCKII cells were cultured in Dulbecco’s modified Eagle’s medium containing 10% FBS, 100 U/ml penicillin, and 100 µg/ml streptomycin at 37 °C in 5% CO2. Plasmids carrying the cDNAs encoding human organic anion transporter (OAT) 1 and 3 were prepared using the pCI-neo mammalian expression vector, as described previously. Using the plasmids, MDCKII cells stably expressing OAT1 and 3 were prepared as described previously, and tested for their functional expressions by evaluating the transports of [^3H]p-aminohippurate and [^3H]estrone sulfate, respectively, as probe substrates.
For the transport assay, the cells were seeded in 24-well plates (1 × 10^5 cells/well), and incubated for 24 h. The cells were pre-incubated for 15 min at 37 °C with 0.25 ml of the incubation medium described above. Two ml of pooled female or male EHBR plasma samples was lyophilized, and dissolved in 2 ml of 10 mM MES (pH 5.5). The cells were then incubated further at 37 °C for 15 min with 0.1 ml of pooled female or male EHBR plasma samples. The surface of the cells was washed 3 times with 0.5 ml of ice-cold PBS, and then the contents were extracted with 0.2 ml of ethanol. The cell residues were dissolved by 0.1 ml of 1 M NaOH, and after neutralization by adding 0.1 ml of 1 M HCl, the concentrations of protein were measured as mentioned above.

serum albumin = assay: binding assay with serum albumin (ultrafiltration of pooled plasma); format: in vitro ADME, rat; details: pooled plasma of EHBRs, filtrate undetectable by LC-MS/MS
Description: In total 100 µl of pooled plasma samples from female EHBRs described above were ultra-centrifugated using Centricut W-20 (Molecular weight cut off 2 × 10^4, Kurabo Industries Ltd., Osaka, Japan) according to the manufacturer’s instruction, and the concentration of compound 1 in the filtrate was measured by using LC-MS/MS described in uptake study section.

SMILES: CC1(C(=O)OC2OC(C(=O)O)C(O)C(O)C2O)CC(O)C2(C)CCC3(C)C(=CC(=O)C4C5(C)CCC(OS(=O)(=O)O)C(C)(C)C5CCC43C)C2C1 (stereo not drawn) [Compound 1, 22α-hydroxy-18β-glycyrrhetyl-3-O-sulfate-30-glucuronide]
- potency on 11β-HSD2, times lower than that of 3MGA and GA (rat 11β-HSD2; IC50 of compound 1 compared with 3MGA and GA): about 10 times
- IC50 (rat 11β-HSD2; kidney microsomes of male Wistar rats, 37 °C, 30 min): 2000 nM
- uptake by cells expressing OAT3 compared with mock cells (OAT3): higher than that by mock cells
- albumin-binding ratio in plasma (serum albumin): more than 99.9%
